In US12492188B2, “1H-benzo[D]imidazole derivatives as TLR9 inhibitors for the treatment of fibrosis” (BRISTOL-MYERS SQUIBB COMPANY, priority 2020, dated 2025):
Read-outs that look alike come from different tables or passages of the source.

How the values were obtained:
Type in all cases: cell-based
human TLR9 = target: T1, human TLR9 (Homo sapiens, UniProt Q9NR96); assay: TLR9 inhibition reporter assay (HEK-Blue cells, secreted embryonic alkaline phosphatase reporter)
T1 construct: host or cells: HEK-Blue cells (HEK293-derived reporter line)
T1 sequence (Q9NR96 26-1032): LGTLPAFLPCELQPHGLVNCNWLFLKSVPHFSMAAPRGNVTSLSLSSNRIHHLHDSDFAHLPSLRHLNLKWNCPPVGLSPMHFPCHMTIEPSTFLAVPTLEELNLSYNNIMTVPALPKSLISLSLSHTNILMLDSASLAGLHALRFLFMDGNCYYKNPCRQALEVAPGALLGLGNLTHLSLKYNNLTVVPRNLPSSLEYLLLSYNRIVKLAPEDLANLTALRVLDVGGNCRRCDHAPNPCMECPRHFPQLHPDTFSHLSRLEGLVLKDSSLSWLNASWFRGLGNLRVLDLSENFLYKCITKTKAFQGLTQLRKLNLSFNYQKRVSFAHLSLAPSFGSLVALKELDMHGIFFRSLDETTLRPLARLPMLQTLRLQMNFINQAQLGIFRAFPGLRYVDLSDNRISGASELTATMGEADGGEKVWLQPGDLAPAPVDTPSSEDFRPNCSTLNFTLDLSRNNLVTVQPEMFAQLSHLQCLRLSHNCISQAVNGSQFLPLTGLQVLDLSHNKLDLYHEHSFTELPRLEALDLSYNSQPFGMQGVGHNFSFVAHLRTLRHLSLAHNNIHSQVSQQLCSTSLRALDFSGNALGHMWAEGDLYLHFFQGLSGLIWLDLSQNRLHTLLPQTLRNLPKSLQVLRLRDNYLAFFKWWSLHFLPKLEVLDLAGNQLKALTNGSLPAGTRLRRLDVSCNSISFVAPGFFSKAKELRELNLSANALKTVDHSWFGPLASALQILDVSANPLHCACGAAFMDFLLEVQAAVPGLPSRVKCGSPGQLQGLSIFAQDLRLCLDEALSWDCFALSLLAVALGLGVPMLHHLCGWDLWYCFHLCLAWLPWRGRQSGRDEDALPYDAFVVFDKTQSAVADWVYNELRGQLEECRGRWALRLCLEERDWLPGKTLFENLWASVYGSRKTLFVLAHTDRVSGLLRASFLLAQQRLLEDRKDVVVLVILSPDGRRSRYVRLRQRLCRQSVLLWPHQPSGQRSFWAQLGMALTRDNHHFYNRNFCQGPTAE
Method in brief: (§1)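 Steps: seed receptor-specific HEK-Blue cells; add compound, 0.05 nM–50 μM; wait 30 min at room temperature; add final gardiquimod 7.5 μM, R848 15.9 μM or ODN2006 5 nM for TLR7, TLR8 or TLR9; incubate 22 h at 37 °C; detect NF-κB/AP-1-driven SEAP.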

human TLR7 = target: T2, human TLR7 (Homo sapiens, UniProt Q9NYK1); assay: TLR7 inhibition reporter assay (HEK-Blue cells, secreted embryonic alkaline phosphatase reporter); details: HEK-Blue cells overexpressing human TLR7, stimulated with gardiquimod 7.5 μM; read-out: TLR 7 IC50
T2 construct: host or cells: HEK-Blue cells (HEK293-derived reporter line)
T2 sequence (Q9NYK1 27-1049): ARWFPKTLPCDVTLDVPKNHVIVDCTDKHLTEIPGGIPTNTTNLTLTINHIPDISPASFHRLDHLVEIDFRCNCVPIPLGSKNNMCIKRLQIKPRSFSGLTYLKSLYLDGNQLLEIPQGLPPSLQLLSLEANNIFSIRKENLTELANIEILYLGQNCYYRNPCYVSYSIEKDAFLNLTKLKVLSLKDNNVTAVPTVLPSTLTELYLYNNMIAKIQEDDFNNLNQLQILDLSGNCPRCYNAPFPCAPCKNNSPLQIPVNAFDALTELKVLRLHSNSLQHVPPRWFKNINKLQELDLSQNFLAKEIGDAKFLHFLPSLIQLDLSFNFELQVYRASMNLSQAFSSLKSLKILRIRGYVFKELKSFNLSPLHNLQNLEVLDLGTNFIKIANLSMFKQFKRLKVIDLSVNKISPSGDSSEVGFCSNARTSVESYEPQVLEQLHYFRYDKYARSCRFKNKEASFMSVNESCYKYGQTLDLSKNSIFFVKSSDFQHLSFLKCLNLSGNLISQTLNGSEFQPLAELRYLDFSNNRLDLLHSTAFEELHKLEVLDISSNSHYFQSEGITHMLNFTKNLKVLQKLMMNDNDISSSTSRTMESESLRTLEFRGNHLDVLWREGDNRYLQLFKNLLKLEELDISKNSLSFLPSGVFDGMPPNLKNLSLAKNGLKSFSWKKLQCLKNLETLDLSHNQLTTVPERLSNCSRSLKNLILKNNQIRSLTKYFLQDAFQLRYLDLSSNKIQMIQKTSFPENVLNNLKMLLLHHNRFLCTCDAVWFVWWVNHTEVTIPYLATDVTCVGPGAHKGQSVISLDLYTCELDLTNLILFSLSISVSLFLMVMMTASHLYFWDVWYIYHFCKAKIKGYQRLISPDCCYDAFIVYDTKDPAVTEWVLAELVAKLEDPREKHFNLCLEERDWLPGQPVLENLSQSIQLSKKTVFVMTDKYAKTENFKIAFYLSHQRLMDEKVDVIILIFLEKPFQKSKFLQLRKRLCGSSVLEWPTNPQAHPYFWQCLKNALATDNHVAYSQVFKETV
Method in brief: as §1

human TLR8 = target: T3, human TLR8 (Homo sapiens, UniProt Q9NR97); assay: TLR8 inhibition reporter assay (HEK-Blue cells, secreted embryonic alkaline phosphatase reporter); details: HEK-Blue cells overexpressing human TLR8, stimulated with R848 15.9 μM; read-out: TLR 8 IC50
T3 construct: host or cells: HEK-Blue cells (HEK293-derived reporter line)
T3 sequence (Q9NR97 27-1041): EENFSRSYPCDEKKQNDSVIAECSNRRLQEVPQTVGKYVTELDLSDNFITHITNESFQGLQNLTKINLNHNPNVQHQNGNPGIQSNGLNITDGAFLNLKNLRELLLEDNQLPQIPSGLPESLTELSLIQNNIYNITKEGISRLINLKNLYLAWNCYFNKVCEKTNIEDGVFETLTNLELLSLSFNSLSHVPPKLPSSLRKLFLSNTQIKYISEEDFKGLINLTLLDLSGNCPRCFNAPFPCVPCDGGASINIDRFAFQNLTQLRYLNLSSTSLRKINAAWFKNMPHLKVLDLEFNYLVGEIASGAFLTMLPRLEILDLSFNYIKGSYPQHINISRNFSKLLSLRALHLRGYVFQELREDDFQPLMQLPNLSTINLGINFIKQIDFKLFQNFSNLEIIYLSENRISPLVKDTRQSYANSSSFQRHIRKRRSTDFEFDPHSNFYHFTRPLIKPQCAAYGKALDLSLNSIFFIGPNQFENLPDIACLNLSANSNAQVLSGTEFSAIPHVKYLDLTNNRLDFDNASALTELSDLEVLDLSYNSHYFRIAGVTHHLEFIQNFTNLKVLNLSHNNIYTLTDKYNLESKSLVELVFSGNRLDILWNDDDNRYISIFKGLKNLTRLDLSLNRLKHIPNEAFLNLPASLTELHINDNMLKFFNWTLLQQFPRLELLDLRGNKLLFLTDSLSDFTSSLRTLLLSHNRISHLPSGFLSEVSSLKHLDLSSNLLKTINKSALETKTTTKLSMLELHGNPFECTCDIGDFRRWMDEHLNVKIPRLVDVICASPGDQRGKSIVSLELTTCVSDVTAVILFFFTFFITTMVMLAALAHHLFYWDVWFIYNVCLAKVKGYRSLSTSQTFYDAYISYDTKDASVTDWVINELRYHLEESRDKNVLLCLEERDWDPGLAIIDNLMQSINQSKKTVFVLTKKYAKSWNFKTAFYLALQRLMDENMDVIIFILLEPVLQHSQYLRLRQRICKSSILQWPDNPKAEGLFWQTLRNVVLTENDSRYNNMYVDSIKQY
Method in brief: as §1

[1] = HEK-Blue cells overexpressing human TLR9, stimulated with ODN2006 5 nM, 22 hour incubation, reporter readout
[2] = HEK-Blue cells overexpressing human TLR9, stimulated with ODN2006 5 nM, read-out: TLR 9 IC50
[3] = HEK-Blue human TLR9 reporter cells

Row | Compound | IC50 (human TLR9; [1]) [nM] | IC50 (human TLR9; [2]) [nM] | IC50 (human TLR7) [nM] | IC50 (human TLR8) [nM] | IC50 (human TLR9; [3]) [nM] | IC50 (human TLR9) [nM]
1 | CCn1c(-c2ccc(OC)c(OC)c2)nc2ccc(C3CCN(C4CCN(CC(C)C)CC4)CC3)cc21 [Example 40, 2-(3,4-dimethoxyphenyl)-1-ethyl-6-(1′-isobutyl-[1,4′-bipiperidin]-4-yl)-1H-benzo[d]imidazole] | 150 | 149 | 2300 | 46000 |  | 
2 | Cc1cc(C2CCN(C3CC4CCC(C3)N4CC(C)C)CC2)cc2c1nc(-c1ccc(S(C)(=O)=O)c(F)c1)n2C (stereo not shown) [Example 342, 2-(3-fluoro-4-(methylsulfonyl)phenyl)-6-(1-(8-isobutyl-8-azabicyclo[3.2.1]octan-3-yl)piperidin-4-yl)-1,4-dimethyl-1H-benzo[d]imidazole] |  | 123 | 12700 | > 25000 | 120 | 
3 | COCCN1CCC(N2CCC(c3ccc4c(nc(-c5ccc(S(C)(=O)=O)cc5)n4C)c3F)CC2)CC1 [Example 188, 4-fluoro-5-(1′-(2-methoxyethyl)-[1,4′-bipiperidin]-4-yl)-1-methyl-2-(4-(methylsulfonyl)phenyl)-1H-benzo[d]imidazole] |  | 441 | > 50000 | > 50000 |  | 440
4 | Cn1c(-c2ccc(S(C)(=O)=O)cc2)nc2cc(C3CCN(C4CCN(C5CC5)CC4)CC3)cc(F)c21 [Example 202, 5-(1′-cyclopropyl-[1,4′-bipiperidin]-4-yl)-7-fluoro-1-methyl-2-(4-(methylsulfonyl)phenyl)-1H-benzo[d]imidazole] |  | 502 | > 50000 | > 50000 |  | 500
5 | COc1ccc(-c2nc3cc(C4CCN(C5CCN(CC(C)C)CC5)CC4)ccc3n2C(C)C)cc1OC [Example 36, 2-(3,4-dimethoxyphenyl)-5-(1′-isobutyl-[1,4′-bipiperidin]-4-yl)-1-isopropyl-1H-benzo[d]imidazole] | 360 | 357 | 6600 | 4600 |  | 
6 | CS(=O)(=O)c1ccc(-c2nc3c(F)cc(C4CCN(C5CC6CCC(C5)N6C5CCOCC5)CC4)cc3n2C2CC2)cc1 (stereo not shown) [Example 329, 1-cyclopropyl-4-fluoro-2-(4-(methylsulfonyl)phenyl)-6-(1-(8-(tetrahydro-2H-pyran-4-yl)-8-azabicyclo[3.2.1]octan-3-yl)piperidin-4-yl)-1H-benzo[d]imidazole] |  | 28 | 1200 | > 50000 | 28 | 
7 | Cc1cc(-c2ccc(CN3CC4(C3)CN(C(C)C)C4)cc2)cc2c1nc(-c1ccc(S(C)(=O)=O)cc1)n2C [Example 399, 6-(4-((6-isopropyl-2,6-diazaspiro[3.3]heptan-2-yl)methyl)phenyl)-1,4-dimethyl-2-(4-(methylsulfonyl)phenyl)-1H-benzo[d]imidazole] | 97 | 97 | 1000 | 2700 |  | 
8 | Cn1c(-c2ccc(S(C)(=O)=O)cc2)nc2cc(F)c(C3CCN(C4CC5CCC(C4)N5C4CCOCC4)CC3)cc21 (stereo not shown) [Example 236, 5-fluoro-1-methyl-2-(4-(methylsulfonyl)phenyl)-6-(1-(8-(tetrahydro-2H-pyran-4-yl)-8-azabicyclo[3.2.1]octan-3-yl)piperidin-4-yl)-1H-benzo[d]imidazole] |  | 99 | > 50000 | > 50000 |  | 99
9 | COc1cc(-c2nc3c(C)cc(C4CCN(C5CC6CCC(C5)N6C5CCC5)CC4)cc3n2C)cn2ncnc12 (single isomer, unassigned) [Example 355, 6-(6-(1-(8-cyclobutyl-8-azabicyclo[3.2.1]octan-3-yl)piperidin-4-yl)-1,4-dimethyl-1H-benzo[d]imidazol-2-yl)-8-methoxy-[1,2,4]triazolo[1,5-a]pyridine] |  | 11 | 200 | 3100 | 11 | 
10 | Cn1c(-c2ccc(S(C)(=O)=O)cc2)nc2c(F)cc(C3CCN(C4CCCN(C5COC5)CC4)CC3)cc21 (single isomer, unassigned) [Example 109, 4-fluoro-1-methyl-2-(4-(methylsulfonyl)phenyl)-6-(1-(1-(oxetan-3-yl)azepan-4-yl)piperidin-4-yl)-1H-benzo[d]imidazole] | 90 |  | 17200 | > 50000 |  | 
11 | COc1ccc(-c2nc3ccc(C4CCN(C5CCN(C6CC6)CC5)CC4)cc3[nH]2)cc1OC [Example 29, 6-(1′-cyclopropyl-[1,4′-bipiperidin]-4-yl)-2-(3,4-dimethoxyphenyl)-1H-benzo[d]imidazole] | 110 | 11.2 | 6600 | > 50000 |  | 
